Assay results: US6406679B1, “Use of HL-60-related lectins in drug delivery and detection of lectin-expressing cells” (Incyte Pharmaceuticals, Inc., priority 1992, dated 2002)

Key:
[1] = system: Spleen Cells; assay: In vivo effect of lectin on phenotypes of lymphocytes (antibody staining); set-up: species or system rat; details: for % positive / F^L / % CHANGE IN POSITIVES: Spleen Cells
[2] = system: T-cell lines; assay: Selection of GPBP-specific T-cell lines from draining lymph nodes; assay type: in vivo, rat; details: lectin-treated rats
Description: (§1) In a follow-up experiment, T-cell lines were selected from the draining lymph nodes.

[3] = system: rats; assay: Skin allograft, single grafts (FIG. 14); assay type: in vivo, rat; details: 5 mg/kg recombinant lectin
Description: In this experiment, 5 mg/kg recombinant lectin was used on rats bearing single grafts and the day of graft rejection was noted.

[4] = system: established T-cell lines; assay: Lectin added to established T-cell lines; assay type: cell-based, rat; details: lectin added in vitro
Description: as §1

[5] = system: mice immunized with AChR; assay: EAMG: muscle acetylcholine receptor content and Ig-complexed AChR; assay type: in vivo, mouse; details: for % of AChR Complexed with Ig / Carcass AChR Content: 10 days after injection
Description: After the observation period, the animals were sacrificed, skinned, and eviscerated; and a cholinergic receptor (AChR) extract was prepared as described by Lefvert, A. K. et al., Scand. J. Immunol. supra for determination of total AChR content and Ig-complexed AChR content, as described therein.
Briefly, to determine total AChR content, known portions of the AChR extracts were incubated with a ten-fold excess of ^125I-alpha-bungarotoxin for 1 hour at 37° C. so as to label the receptor for quantitation. The mixture was subjected to gel filtration on Sephacryl G200 to separate free and bound toxin. To determine the amount of AChR complexed to IgG or IgM antibodies, the extract was incubated with a ten-fold excess of labeled bungarotoxin overnight at 4° C.; anti-mouse IgG or IgM was then added and the samples incubated overnight at 4° C., followed by separation of the precipitates, washing and counting.

[6] = system: lymph node cells; assay: Response of lymph node cells to the lectin (mitogenicity); assay type: cell-based, rat; details: data not shown
[7] = Antibodies specific for the lectin in sera of treated rats (ELISA); assay type: in vivo, rat
[8] = system: human T-cells of the Jurkat line; assay: Agglutination of cells treated with lectin; assay type: cell-based; details: 250 μg/ml lectin, on ice 30 min
Description: (§2) To analyze the mechanism of action of the inventive lectins as immunomodulators, a test was devised to discover whether these lectins bind lymphocytes and/or T-cells to endothelial cells. Thin sections of tissue containing inflamed rat brain vascular endothelium were prepared. Rat lymph node lymphocytes and human T-cells of the Jurkat line (10^7/ml in Dulbecco's modified Eagle medium (MEM) with 5% fetal bovine serum (FBS)) were treated with 250 μg/ml of the lectin of Example 1, with the lectin plus 1 mM beta-lactose, or with no additions and subsequently were placed on ice for 30 min. […] These effects were not observed when beta-lactose was added or when there were no additions.

[9] = system: Rat lymph node lymphocytes; assay: Agglutination of cells treated with lectin; assay type: cell-based; details: 250 μg/ml lectin, on ice 30 min
Description: as §2

[10] = system: SJL/J mice; assay: EAE relapse murine model; assay type: in vivo, mouse; details: 50 μg i.v. days 13 and 15, 100 μg i.v. daily days 18-24, FIG. 13
Description: In mice, symptoms of EAE can be made to occur in cyclical fashion by boosting the animals with antigen following each cycle, and each cycle becomes more severe until death ultimately occurs. This is a useful model in which to determine therapeutic efficacy, since it closely mimics both the chronic disease relapses and the acute demyelination associated with multiple sclerosis. In this experiment, 20 female SJL/J mice were immunized with lyophilized spinal cord extract dissolved in PBS plus CFA on days 0, 7 and 21. Ten mice were injected with recombinant lectin, and ten mice were given buffer only. The lectin-treated mice received 50 μg lectin on days 13 and 15 intravenously in the tail vein, and an additional 100 μg i.v. daily from day 18 through day 24. Mice were followed until death or sacrifice at day 42.
The results in FIG. 13 are mean clinical scores for control and lectin-treated mice.

[11] = system: BALB/c mice; assay: Primary immune response: serum antibody levels; assay type: in vivo, mouse
Description: The effect of coadministration of lectin on the B-cell repertoire mounted as a primary response to immunization was also tested directly by antibody formation in the sera. Immunoassays for antibody content for the various antigens were performed as follows:
For immunization with Torpedo acetylcholine receptor, microtiter: wells were coated overnight with 100 μl of a solution containing 5 μg/ml of purified receptor as prepared in Example 8, Part A, and incubated with serum (diluted 1/25) for 3 hours at 37° C. After washing, the plates were incubated for 3 hours at 37° C. with alkaline phosphatase-conjugated goat anti-mouse immunoglobulins. The plates were then washed extensively and incubated for 1 hour at 37° C. with […] ethanolamine buffer. The reaction was stopped by addition of 25 μl of 3 M NaOH, and the binding of the labeled antibody was measured in an ELISA microreader at 405 nm. […]
For antibodies against mouse AChR, antibodies were determined using as antigen a complex between a partially purified normal mouse skeletal muscle receptor and ^125I-alpha-bungarotoxin. […]
. […] The reaction was stopped by addition of 25 μl of 3 M NaOH, and the binding of the labeled antibody was measured in an ELISA microreader at 405 nm. […]
. Blood was obtained after 3 days and again after 1, 2, 3 and 4 weeks and antibody levels were determined as described above.

[12] = antibody IgG, lectin-treated rats

Substance: Lectin: Soluble 14 kD β-galactoside-binding HL-60/placenta lectin of FIG. 1 (SEQ ID NO:2), prepared recombinantly in E. coli
- % positive ([1]; antibody 0X6): 15.6%
- F^L ([1]; antibody 0X6): 375
- % CHANGE IN POSITIVES ([1]; antibody 0X6, lectin vs control): 0%
- % positive ([1]; antibody 0X8): 41.2%
- F^L ([1]; antibody 0X8 (suppressor T-cells)): 323
- % CHANGE IN POSITIVES ([1]; antibody 0X8, lectin vs control): +32%
- % positive ([1]; antibody 0X12): 15.4%
- F^L ([1]; antibody 0X12): 363
- % CHANGE IN POSITIVES ([1]; antibody 0X12, lectin vs control): 0%
- % positive [1, 12]: 24.3%
- F^L [1, 12]: 129
- % positive ([1]; antibody W3/13): 85.9%
- F^L ([1]; antibody W3/13 (total T-cells)): 311
- % CHANGE IN POSITIVES ([1]; antibody W3/13, lectin vs control): −19%
- % positive ([1]; antibody W3/25): 67.2%
- F^L ([1]; antibody W3/25 (helper T-cells)): 161
- % CHANGE IN POSITIVES ([1]; antibody W3/25, lectin vs control): −24%
- decrease in the numbers of spleen helper T-cells (w3/25 antibody reactive) ([1]; lectin-treated animals): 19%
- decrease in the numbers of spleen total T-cells (w3/13 antibody reactive) ([1]; lectin-treated animals): 24%
- increase in the number of spleen suppressor T-cells ([1]; lectin-treated animals): 32%
- GPBP-specific T-cell lines from draining lymph nodes [2]: no lines could be established
- rejection of the skin allograft [3]: considerably delayed
- effect on established T-cell lines [4]: no inhibitory effect
- % of AChR Complexed with Ig ([5]; AChR + lectin 0.1 μg): 48 ± 6.0%
- Carcass AChR Content ([5]; AChR + lectin 0.1 μg): 0.8 ± 0.4 mol × 10^−11
- % of AChR Complexed with Ig ([5]; AChR + lectin 1 μg): 52 ± 2.0%
- Carcass AChR Content ([5]; AChR + lectin 1 μg): 1.4 ± 0.3 mol × 10^−11
- % of AChR Complexed with Ig ([5]; AChR + lectin 5 μg): 44 ± 5.0%
- Carcass AChR Content ([5]; AChR + lectin 5 μg): 0.9 ± 0.5 mol × 10^−11
- % of AChR Complexed with Ig ([5]; AChR + lectin 15 μg): 11 ± 10.7%
- Carcass AChR Content ([5]; AChR + lectin 15 μg): 3.5 ± 0.4 mol × 10^−11
- % of AChR Complexed with Ig ([5]; AChR + lectin 25 μg): 11 ± 7.8%
- Carcass AChR Content ([5]; AChR + lectin 25 μg): 3.2 ± 0.6 mol × 10^−11
- AChR loss and amount of Ig-complexed AChR ([5]; single subcutaneous doses of about 7.5-12 μg): lowered
- mitogenicity for lymph node cells [6]: not mitogenic
- antibodies specific for the lectin in sera of treated rats [7]: did not contain
- Agglutination of T-cells [8]: severely agglutinated
- Clumping of rat lymphocytes [9]: moderately clumped
- mean clinical scores, first cycle [10]: improved clinical scores
- survival and clinical scores, second cycle [10]: improved survival and clinical scores
- primary immune response to pneumococcal polysaccharide (T-independent antigen) ([11]; any dose, FIG. 7): No effect
- primary immune response to T-dependent antigens ([11]; higher doses of lectin (15 and 25 μg), FIGS. 6, 8, 9): significantly lowered
